In US8772318B2, “Methods and compositions related to targeting monoacylglycerol lipase” (The Scripps Research Institute, priority 2008, dated 2014):

Experiments:
FAAH = molecular target: T1, FAAH (Mus musculus, UniProt O08914); assay: FAAH activity of brain membranes from treated mice (competitive ABPP, oleamide substrate assay); assay type: in vivo; settings: URB597 10 mg/kg, i.p.
T1 construct: from tissue; host or cells: mouse brain membrane fraction
T1 sequence (O08914 1-579): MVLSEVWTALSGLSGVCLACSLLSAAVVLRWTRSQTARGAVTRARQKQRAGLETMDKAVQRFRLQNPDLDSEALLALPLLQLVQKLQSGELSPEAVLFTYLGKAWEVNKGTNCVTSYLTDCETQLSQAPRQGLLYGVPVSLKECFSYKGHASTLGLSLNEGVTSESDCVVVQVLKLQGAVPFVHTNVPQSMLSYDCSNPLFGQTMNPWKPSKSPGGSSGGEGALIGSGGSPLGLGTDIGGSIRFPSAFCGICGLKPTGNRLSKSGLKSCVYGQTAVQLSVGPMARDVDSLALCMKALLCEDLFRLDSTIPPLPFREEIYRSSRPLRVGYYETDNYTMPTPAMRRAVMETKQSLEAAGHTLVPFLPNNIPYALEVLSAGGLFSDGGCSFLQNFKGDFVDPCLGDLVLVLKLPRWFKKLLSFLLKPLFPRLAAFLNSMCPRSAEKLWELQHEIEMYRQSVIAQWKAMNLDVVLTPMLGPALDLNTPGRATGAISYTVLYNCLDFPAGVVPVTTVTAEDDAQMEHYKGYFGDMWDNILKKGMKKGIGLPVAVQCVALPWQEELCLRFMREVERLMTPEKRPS
Protocol: Enzyme activity assays. Briefly, 2-AG (100 μM) was incubated with mouse brain membrane (20 μg) or recombinant MAGL in COS7 cells (0.1 μg) in PBS (200 μl) at room temperature for 10 min. The reactions were quenched by the addition of 500 μL 2:1 v/v CHCl3:MeOH, doped with 0.5 nmol PDA, vortexed, then centrifuged (1,400×g, 3 min) to separate the phases. 30 ul of the resultant organic phase was injected onto an Agilent 1100 series LC-MSD SL instrument. […] Mobile phase A was composed of 95:5 v/v H2O:MeOH, and mobile phase B was composed of 60:35:5 v/v/v i-PrOH:MeOH:H2O. 0.1% ammonium hydroxide was included to assist in ion formation in negative ionization mode. […] Hydrolysis products were quantified by measuring the area under the peak in comparison to the PDA standard. ^13C-oleamide or AEA hydrolysis activity was determined using mouse brain membrane (50 μg) or recombinant FAAH in COST cells (5 μg), respectively, in PBS (100 μl). […] DAGLβ hydrolysis activity was determined using recombinant DAGLβ in HEK293 cells (50 μg) in PBS (100 μl). […]
Competitive activity-based protein profiling (ABPP) experiments. […] After 30 min at room temperature, the reactions were quenched with 4×SDS-PAGE loading buffer, boiled for 5 min at 90° C., subjected to SDS-PAGE, and visualized in-gel using a flatbed fluorescence scanner. […]

[1] = test system: brain levels of 2-AG, arachidonic acid, NAEs, MAGs, free fatty acids; assay: Measurement of brain lipids in treated mice; assay type: in vivo, mouse; settings: URB597 10 mg/kg, i.p.
Protocol: Measurement of brain lipids. One half brain was weighed and subsequently Dounce homogenized in 2:1:1 v/v/v CHCl3:MeOH:Tris pH 8.0 (8 ml) containing standards for N-acylethanolamine (NAE), monoacylglycerol (MAG), or free fatty acid (FFA) measurements (200 pmol d4-OEA, 20 pmol d4-AEA, 400 pmol C15:0-MAG, and 4 nmol PDA). The mixture was vortexed and then centrifuged (1,400×g, 10 min). The organic layer was removed, CHCl3 was added until the final volume was again 8 ml, and the extraction was repeated. The combined organic extracts were dried under a stream of N2 and resolubilized in 2:1 v/v CHCl3:MeOH (120 μl). 30 uL and 15 uL of resolubilized lipid were injected for positive mode (MAG and NAE) and negative mode (free fatty acid) measurements, respectively. Lipid measurements were performed by LC-MS using the same instrument and solvents as described above. Solvent modifiers such as 0.1% formic acid or 0.1% ammonium hydroxide were included to assist in ion formation in positive and negative ionization mode, respectively. For positive mode measurements, the flow rate for each run started at 0.1 ml/min for 5 min. […] MAGs, NAEs, and FFAs were quantified by measuring the area under the peak in comparison to the C15:0 or deuterated standards. […]

[2] = Tail immersion assay of thermal pain sensation; assay type: in vivo, mouse; settings: rimonabant 3 mg/kg before JZL184 16 mg/kg
Protocol: (§1) Behavioral Studies. […] A total of four groups of mice were used, with a sample size of 14 mice/group. Before injections, the mice were evaluated for baseline responses in the tail immersion test, as well for rectal temperatures. […] For determining hypomotility each mouse was placed in a clear Plexiglas box (42.7×21.0×20.4 cm) for a 10 min assessment period and Anymaze (Stoelting, Wood Dale, Ill.) software was used to determine the percentage of time spent immobile. Subjects were assessed for nociception in the tail immersion assay. Each mouse was placed head first into a small bag fabricated from absorbent under pads (VWR Scientific Products; 4 cm diameter, 11 cm length) with the tail out of the bag. The experimenter gently held the mouse and immersed approximately 1 cm of the tip of the tail into a water bath maintained at 56.0° C. The latency for the animal to withdraw its tail from the water within a 10 s cutoff time was scored. Catalepsy was evaluated using the bar test, in which the front paws of each subject were placed on a rod (0.75 cm diameter) that was elevated 4.5 cm above the surface. Mice that remained motionless with their paws on the bar for 10 s (with the exception of respiratory movements) were scored as cataleptic. […] Rectal temperature was determined by inserting a thermocouple probe 2.0 cm into the rectum and temperature was obtained from a telethermometer.

[3] = Acetic acid abdominal stretching (writhing) assay; assay type: in vivo, mouse; settings: rimonabant 3 mg/kg before JZL184 16 mg/kg
Protocol: A second group of naïve subjects (n=10-11 mice/group) were evaluated in the acetic acid stretching assay. […] Acetic acid (0.6%) was injected intraperitoneally in a volume of 10 μl/g body weight 120 min after the second injection. The number of stretches (constriction of abdomen, turning of trunk (twist) and extension of the body and hind limbs) per mouse was counted during a 20-min period after the administration of acetic acid.

[4] = Rectal temperature (hypothermia); assay type: in vivo, mouse; settings: rimonabant 3 mg/kg before JZL184 16 mg/kg
Protocol: as §1

[5] = Locomotor activity (hypomotility); assay type: in vivo, mouse
Protocol: as §1

[6] = Bar test (catalepsy, hyperreflexia); assay type: in vivo, mouse; settings: rimonabant 3 mg/kg before JZL184 16 mg/kg
Protocol: as §1

[7] = test system: human cancer cell lines (C8161, SKOV3, 231MFP, MUM2C, OVCAR3); assay: Lipid measurements in cancer cells; assay type: cell-based; settings: antagonist 1 μM, 4 hr
Protocol: Pharmacological inhibition of MAGL in cancer cells. Pharmacological inhibition studies were conducted as described previously (Chiang et al., Chem. Biol. 13:1041-1050, 2006). Cancer cells were maintained in RPMI medium 1640 with 10% (v/v) fetal calf serum at 37° C. in a humidified atmosphere of 5% CO2/95% air. At 80% confluency, cells were trypsinized and counted using a hemocytometer, and 1×10^6 cells were plated in 6 cm dishes (subconfluent). […] After incubation for 4 hr, the cells were harvested and analyzed by ABPP or LC-MS.
Lipid measurements in cancer cells. Lipid measurements were conducted similarly to protocols described previously (Chiang et al., 2006; supra). Cancer cells were grown in serum-free media for 4 hrs to minimize the contribution of serum-derived lipids to the cellular profiles. The cells (1×10^6 cells/6 cm dish, 80% confluency) were washed with twice with phosphate buffer saline (PBS), isolated by centrifugation at 1,400×g, and dounce-homogenized in 4 ml of a 2:1:1 mixture of chloroform:methanol:Tris buffer. Samples were homogenized in the presence of the following synthetic standards: C12:0 MAGE (10 nmol), C15:0 FFA (10 nmol). Organic and aqueous layers were separated by centrifugation at 2000×g for 5 min and the organic layer was collected. The aqueous layer was acidified (for metabolites such as LPA) by adding 5% formic acid, followed by the addition of 2 ml chloroform. The mixture was vortexed, and the organic layers were combined, dried down under N2 and dissolved in 100 μl chloroform, of which 30 μl was analyzed by LC-MS.
LC-MS analysis was performed by using an Agilent 1100 LC-MSD SL instrument. […] Mobile phase A was composed of a 95:5 ratio of water:methanol, and mobile phase B consisted of 2-propanol, methanol, and water in a 60:35:5 ratio. Solvent modifiers such as 0.1% formic acid and 0.1% ammonium hydroxide were used to assist ion formation as well as to improve the LC resolution in both positive and negative ionization modes, respectively. The flow rate for each run started at 0.1 ml/min for 5 min, to alleviate backpressure associated with injecting chloroform. The gradient started at 0% B and increased linearly to 100% B over the course of 45 min with a flow rate of 0.4 ml/min, followed by an isocratic gradient of 100% B for 17 min at 0.5 ml/min before equilibrating for 8 min at 0% B with a flow rate of 0.5 ml/min. MS analysis was performed with an electrospray ionization (ESI) source. The capillary voltage was set to 3.0 kV, and the fragmentor voltage was set to 100 V. The drying gas temperature was 350° C., the drying gas flow rate was 10 L/min, and the nebulizer pressure was 35 psi.
Lipidomic analysis was performed in both targeted and untargeted mode by LC-MS analysis. Standard lipid classes were quantitated by targeting using selected ion monitoring (SIM) (except for very high-abundance metabolites which were quantitated by untargeted analysis) and identities of metabolites were confirmed by coelution of metabolites with their respective standards and mass accuracy to within 10 ppm as determined with an accurate mass Agilent 6520 Accurate Mass QTOF-MS-MS. These lipids were quantified by measuring the area under the peak and were normalized to an internal standard (C12:0 MAGE in positive mode or C15:0 FFA in negative mode). […]

[8] = test system: human cancer cell lines (C8161, SKOV3, 231MFP, MUM2C, OVCAR3); assay: Cell migration assay (Transwell); assay type: cell-based; settings: antagonist 1 μM, 4 hr
Protocol: Cell migration, cell survival, and invasion studies. Migration assays were performed in Transwell chambers (Corning) with 8 μm pore-sized membranes coated with 10 μg/ml collagen for 4 h at 37° C. A total of 24 hr before the start of the migration assay, cancer cell lines were plated at a concentration of 1×10^6 cells per 6 cm dish. At the start of the migration assay, cells were harvested by washing two times with PBS and were then serum starved in serum-free media for 4 hr. Inhibitor, lipid or vehicle (0.1% DMSO) were preincubated with the cells during this 4 h time. Serum-starved cells were trypsinized, spun at 1400×g for 3 min, resuspended, and counted. 50,000 cells were seeded in the upper chamber of the transwells in 200 μl serum-free media (containing inhibitor, lipid or vehicle). Inhibitor, lipid or vehicle was also added to the lower chamber, and cells were allowed to migrate for 5 h (for C8161 and 231MFP cells) or 20 hr (SKOV3, MUM2C and OVCAR3 cells). The filters were then fixed and stained with Diff-Quik (Dade Behring). Cells that had not migrated through the chamber were removed with a cotton ball. The cells that migrated were counted at a magnification of 400×, and 4 fields were independently counted from each migration chamber. An average of cells in 4 fields for one migration chamber represents n=1.

NC(=O)c1cccc(-c2cccc(OC(=O)NC3CCCCC3)c2)c1 [URB597]
brain FAAH activity (FAAH): completely inhibited
brain 2-AG or arachidonic acid levels [1]: without altering
brain anandamide and other NAEs [1]: significant elevations

Cc1c(C(=O)NN2CCCCC2)nn(-c2ccc(Cl)cc2Cl)c1-c1ccc(Cl)cc1 [rimonabant]
effect of rimonabant pre-treatment on JZL184 analgesia, tail immersion [2]: blocked
effect of rimonabant pre-treatment on JZL184 analgesia, acetic acid writhing [3]: blocked
effect of rimonabant on JZL184 hypothermic effect [4]: completely blocked
movement, rimonabant on its own ([5]; rimonabant 3 mg/kg): significant reductions in movement
effect of rimonabant on JZL184-induced immobility ([5]; rimonabant 3 mg/kg before JZL184 16 mg/kg): partial blockade
effect of rimonabant on JZL184 hyperreflexia effect [6]: completely blocked
FFA levels in shControl and shMAGL cancer cells [7]: unchanged
migratory defect in shMAGL cancer cells [8]: not rescued
